Assay type in all cases: biochemical
The target in assay [1] is T1, aggregated beta-amyloid; human Aβ 1-42 (UniProtKB-P05067, a.a. 672-713) (Homo sapiens, UniProt P05067).
T1 construct: UniProtKB-P05067, a.a; 672-713
As to the kind of experiment: Beta-amyloid aggregate degradation test (thioflavin T assay). The conditions noted are these: pre-aggregated Aβ, further 3 days at 37° C., ThT fluorescence vs control = 100%. The protocol:
Aβ (beta-amyloid; human A3 1-42 monomer (UniProtKB-P05067, a.a. 672-713)) was dissolved at a concentration of 10 mM in dimethyl sulfoxide (DMSO), and the resulting solution was diluted to 250 μM using distilled water, and then incubated at 37° C. for 3 days to induce aggregation. The aggregated beta-amyloid was added with each test compound in an amount of 50 or 500 μM such that the final concentration reached 25 μM, and was further cultured at 37° C. for 3 days to induce reaction. The aggregate degradation effect of each test compound was measured by thioflavin T (ThT) assay (see Example 2). Specifically, 25 μL of the reaction solution was charged in each well of a 96-well plate for fluorescence analysis and 75 μL of the prepared thioflavin-T solution was charged in each well. The reaction was allowed to proceed at room temperature in a dark laboratory for 5 minutes and then fluorescence values were measured at an excitation wavelength of 450 nm and an emission wavelength of 485 nm using a multi-mode microplate reader. The ratio of the fluorescence value measured in the group obtained by treating with each test compound to 100% of the fluorescence value of the group (control group) obtained by treating only with beta-amyloids and inducing aggregation for 3 days is set forth in Table 4 below: […]

Assay [2] has as its target T2, Tau protein (wild-type K18) (Homo sapiens, UniProt P10636).
T2 construct: Tau protein (wild-type K18)
As to the kind of experiment: Tau protein aggregation inhibition test (thioflavin T assay). Conditions: heparin/DTT-induced aggregation, 37° C. 5 days, ThT fluorescence vs tau-only control = 100%. As for the experimental part: Tau protein (wild-type K18) was dissolved in phosphate-buffered saline (PBS, pH 7.4) at a concentration of 1 mg/mL to prepare a tau protein solution. In order to induce aggregation of tau proteins, 0.1 mg/mL of heparin and 100 μM dithiothreitol (DTT) were added to 1 mg/mL of the tau protein solution, followed by incubation at 37° C. for 5 days. At this time, the result was mixed with each test compound (50, 500 μM) such that the final concentration reached 0.5 mg/mL, followed by further incubation.
The inhibitory effect of each compound against tau aggregation was measured based on the intensity of fluorescence by thioflavin T (ThT) assay (see Example 2). More specifically, 25 μL of the reaction solution was charged in each well of a 96-well plate for fluorescence analysis, and 75 μL of the prepared thioflavin-T solution was then charged in each well. The reaction was allowed to proceed at room temperature in a dark laboratory for 5 minutes, and then fluorescence values were measured at an excitation wavelength of 450 nm and an emission wavelength of 485 nm using a multi-mode microplate reader.
The ratio of the fluorescence value measured in the group obtained by treating with each test compound to 100% of the fluorescence value of the group (control group) obtained by treating only with tau proteins and inducing aggregation for 5 days is set forth in Table 5 below: […]

The target in assay [3] is T3, aggregated tau protein (wild-type K18) (Homo sapiens, UniProt P10636).
T3 construct: Tau protein (wild-type K18)
T3 sequence (P10636 561-685 limits assumed): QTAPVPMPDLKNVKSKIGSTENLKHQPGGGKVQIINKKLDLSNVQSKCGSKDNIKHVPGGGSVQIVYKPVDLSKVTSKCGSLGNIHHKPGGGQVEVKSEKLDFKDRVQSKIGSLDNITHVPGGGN
Kind of assay: Tau protein aggregate degradation test (thioflavin T assay). The conditions noted are these: pre-aggregated tau, further 5 days at 37° C., ThT fluorescence vs control = 100%. The protocol:
Tau protein (wild-type K18) was dissolved in phosphate-buffered saline (PBS, pH 7.4) at a concentration of 1 mg/mL to prepare a tau protein solution. 0.1 mg/mL of heparin and 100 μM dithiothreitol (DTT) were added to 1 mg/mL of the tau protein solution, followed by incubation at 37° C. for 5 days to induce tau protein aggregation. The aggregated tau protein was mixed with each test compound in an amount of 50 or 500 μM such that the final concentration reached 0.5 mg/mL, followed by further incubation at 37° C. for 5 days to induce reaction.
The degradation effect of each compound on the tau aggregates was measured by thioflavin T (ThT) assay (see Example 2). More specifically, 25 μL of the reaction solution was charged in each well of a 96-well plate for fluorescence analysis and 75 μL of the prepared thioflavin-T solution was charged in each well. The reaction was allowed to proceed at room temperature in a dark laboratory for 5 minutes and then fluorescence values were measured at an excitation wavelength of 450 nm and an emission wavelength of 485 nm using a multi-mode microplate reader.
The ratio of the fluorescence value measured in the group obtained by treating with each test compound to 100% of the fluorescence value of the group (control group) obtained by treating only with tau proteins and inducing aggregation for 5 days is set forth in Table 6 below: […]

T1 sequence (P05067 672-713): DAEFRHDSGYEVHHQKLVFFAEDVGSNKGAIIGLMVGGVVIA
T2 sequence (P10636 561-685 limits assumed): as the sequence (P10636 561-685 limits assumed) above

As for `O=C1NC(=O)/C(=C/c2c[nH]c3ncccc23)S1` [DN204286, (Z)-5-((1H-pyrrolo[2,3-b]pyridin-3-yl)methylene)thiazolidine-2,4-dione], the “Beta-amyloid aggregate degradation activity (% of control)” value in assay [1] (500 uM test compound) was 94.23 % of control. Also, the “Tau aggregation remaining (ThT fluorescence, % of tau-only control)” value is 56.04 % of control in assay [2] (50 uM test compound) and 82.71 % of control in assay [2] (500 uM test compound).

Take `O=C1NC(=O)/C(=C/c2c[nH]c3cccnc23)S1` [DN204289, (Z)-5-((1H-pyrrolo[3,2-b]pyridin-3-yl)methylene)thiazolidine-2,4-dione]: the “Beta-amyloid aggregate degradation activity (% of control)” value in assay [1] (50 uM test compound) is on record as 83.66 % of control; in assay [1] (500 uM test compound), 54.07 % of control. Besides, the “Tau aggregation remaining (ThT fluorescence, % of tau-only control)” value is 60.71 % of control in assay [2] (50 uM test compound) and 46.16 % of control in assay [2] (500 uM test compound). Also, the results for the “ThT fluorescence remaining (% of control)” value in assay [3] (50 uM test compound) and in assay [3] (500 uM test compound) were 57.57 % of control and 52.83 % of control, respectively.

As for `O=C1NC(=O)C(Cc2cnc3ccccc3c2)S1` (stereo not shown) [DN204294, 5-(quinolin-3-ylmethyl)thiazolidine-2,4-dione], the “Beta-amyloid aggregate degradation activity (% of control)” value was 88.64 % of control in assay [1] (50 uM test compound) and 74.80 % of control in assay [1] (500 uM test compound). The “Tau aggregation remaining (ThT fluorescence, % of tau-only control)” value in assay [2] (50 uM test compound) is reported as 85.91 % of control.

On to `O=C1NC(=S)S/C1=C\c1c[nH]c2ccccc12` [DN204296, (Z)-5-((1H-indol-3-yl)methylene)-2-thioxothiazolidin-4-one], for which the “Beta-amyloid aggregate degradation activity (% of control)” value in assay [1] (50 uM test compound) is on record as 68.90 % of control; in assay [1] (500 uM test compound), 17.28 % of control. Besides, the “Tau aggregation remaining (ThT fluorescence, % of tau-only control)” value in assay [2] (50 uM test compound) is 13.243 % of control; in assay [2] (500 uM test compound), 4.984 % of control. The “ThT fluorescence remaining (% of control)” value was 30.26 % of control in assay [3] (50 uM test compound) and 16.48 % of control in assay [3] (500 uM test compound).

For `O=C1NC(=S)S/C1=C\c1cc[nH]c1` [DN204297, (Z)-5-((1H-pyrrol-3-yl)methylene)-2-thioxothiazolidin-4-one], the “Beta-amyloid aggregate degradation activity (% of control)” value in assay [1] (50 uM test compound) is given as 86.80 % of control; in assay [1] (500 uM test compound), 28.19 % of control. In addition, the “Tau aggregation remaining (ThT fluorescence, % of tau-only control)” value in assay [2] (50 uM test compound) is on record as 48.721 % of control; in assay [2] (500 uM test compound), 16.233 % of control. The figures for the “ThT fluorescence remaining (% of control)” value in assay [3] (50 uM test compound) and in assay [3] (500 uM test compound) were 52.16 % of control and 17.97 % of control, respectively.

As for `O=C1NC(=S)S/C1=C\c1ccoc1` [DN204298, (Z)-5-(furan-3-ylmethylene)-2-thioxothiazolidin-4-one], the “Beta-amyloid aggregate degradation activity (% of control)” value is 59.37 % of control in assay [1] (50 uM test compound) and 7.79 % of control in assay [1] (500 uM test compound). In addition, the “Tau aggregation remaining (ThT fluorescence, % of tau-only control)” value is 71.163 % of control in assay [2] (50 uM test compound) and 33.817 % of control in assay [2] (500 uM test compound). Also, the “ThT fluorescence remaining (% of control)” value in assay [3] (50 uM test compound) was 61.36 % of control; in assay [3] (500 uM test compound) it was 29.73 % of control.

Consider `O=C1NC(=S)S/C1=C\c1ccsc1` [DN204299, (Z)-5-(thiophen-3-ylmethylene)-2-thioxothiazolidin-4-one], for which the “Beta-amyloid aggregate degradation activity (% of control)” value in assay [1] (500 uM test compound) is recorded as 80.07 % of control. In addition, the “Tau aggregation remaining (ThT fluorescence, % of tau-only control)” value was 60.521 % of control in assay [2] (50 uM test compound) and 33.932 % of control in assay [2] (500 uM test compound). The figures for the “ThT fluorescence remaining (% of control)” value in assay [3] (50 uM test compound) and in assay [3] (500 uM test compound) were 72.21 % of control and 45.09 % of control, respectively.

Regarding `O=C1NC(=S)SC1Cc1cc[nH]c1` (stereo not shown) [DN204303, 5-((1H-pyrrol-3-yl)methyl)-2-thioxothiazolidin-4-one], the “Beta-amyloid aggregate degradation activity (% of control)” value in assay [1] (50 uM test compound) is reported as 90.66 % of control; in assay [1] (500 uM test compound), 33.65 % of control. In addition, the “Tau aggregation remaining (ThT fluorescence, % of tau-only control)” value in assay [2] (50 uM test compound) is listed as 82.4 % of control; in assay [2] (500 uM test compound) it was 29.14 % of control. The “ThT fluorescence remaining (% of control)” value in assay [3] (50 uM test compound) is on record as 81.77 % of control; in assay [3] (500 uM test compound) it was 39.19 % of control.

As for `O=C1NC(=S)SC1Cc1c[nH]c2ncccc12` (stereo not shown) [DN204304, 5-((1H-pyrrolo[2,3-b]pyridin-3-yl)methyl)-2-thioxothiazolidin-4-one], the “Beta-amyloid aggregate degradation activity (% of control)” value is recorded as 97.47 % of control in assay [1] (50 uM test compound) and 73.11 % of control in assay [1] (500 uM test compound). Besides, the “Tau aggregation remaining (ThT fluorescence, % of tau-only control)” value in assay [2] (50 uM test compound) is reported as 70.66 % of control; in assay [2] (500 uM test compound), 39.54 % of control. In addition, the “ThT fluorescence remaining (% of control)” value is 67.53 % of control in assay [3] (50 uM test compound) and 50.23 % of control in assay [3] (500 uM test compound).

Turning to `CN1C(=O)N/C(=C\c2c[nH]c3cccnc23)C1=O` [DN204673, (Z)-5-((1H-pyrrolo[3,2-b]pyridin-3-yl)methylene)-3-methylimidazolidine-2,4-dione], the “Beta-amyloid aggregate degradation activity (% of control)” value was 86.89 % of control in assay [1] (50 uM test compound) and 30.52 % of control in assay [1] (500 uM test compound). Further, the “Tau aggregation remaining (ThT fluorescence, % of tau-only control)” value in assay [2] (500 uM test compound) is on record as 55.87 % of control.

On to `O=C1NC(=S)S/C1=C\c1c[nH]c2ccncc12` [DN204807, (Z)-5-((1H-pyrrolo[3,2-c]pyridin-3-yl)methylene)-2-thioxothiazolidin-4-one], for which the “Beta-amyloid aggregate degradation activity (% of control)” value in assay [1] (500 uM test compound) was 53.56 % of control. Moreover, the “Tau aggregation remaining (ThT fluorescence, % of tau-only control)” value in assay [2] (50 uM test compound) is given as 93.56 % of control; in assay [2] (500 uM test compound), 74.24 % of control.

On to `O=C1NC(=S)S/C1=C\c1c[nH]c2cccnc12` [DN204808, (Z)-5-((1H-pyrrolo[3,2-b]pyridin-3-yl)methylene)-2-thioxothiazolidin-4-one], for which, in assay [1] (500 uM test compound), the “Beta-amyloid aggregate degradation activity (% of control)” value is reported as 73.30 % of control. For the same compound, the figures for the “Tau aggregation remaining (ThT fluorescence, % of tau-only control)” value in assay [2] (50 uM test compound) and in assay [2] (500 uM test compound) were 27.48 % of control and 16.09 % of control, respectively. In addition, the “ThT fluorescence remaining (% of control)” value is recorded as 62.2 % of control in assay [3] (50 uM test compound) and 41.11 % of control in assay [3] (500 uM test compound).

With `O=C1NC(=S)S/C1=C\c1ccc2occc2c1` [DN204809, (Z)-5-(benzofuran-5-ylmethylene)-2-thioxothiazolidin-4-one], the “Beta-amyloid aggregate degradation activity (% of control)” value is 95.14 % of control in assay [1] (50 uM test compound) and 25.32 % of control in assay [1] (500 uM test compound). In addition, the “Tau aggregation remaining (ThT fluorescence, % of tau-only control)” value in assay [2] (50 uM test compound) is 36.72 % of control; in assay [2] (500 uM test compound), 32.09 % of control. Besides, the “ThT fluorescence remaining (% of control)” value in assay [3] (50 uM test compound) is reported as 51.93 % of control; in assay [3] (500 uM test compound), 30.87 % of control.

The values above are taken from patent US20230129364A1, “PYRROLIDINE DERIVATIVE, AND PHARMACEUTICAL COMPOSITION FOR PREVENTING OR TREATING BETA-AMYLOID OR TAU PROTEIN-ASSOCIATED DISEASES CONTAINING SAME” (YONSEI UNIVERSITY, UNIVERSITY - INDUSTRY FOUNDATION (UIF), priority 2019, published 2023).
